Counter-ions that a name gives are not always drawn.
Tests used:
p38alpha = target: T1, p38alpha (Homo sapiens, UniProt Q16539); test: P38alpha enzyme inhibition assay (Alphascreen kinase activity assay); type: biochemical; conditions: 100 pM p38alpha, 250 μM ATP, 2 hours pre-incubation at 25° C., ATF-2 fusion protein substrate; read-out: p38α inhibition (IC50 values)
T1 construct: purchased Invitrogen PV3304
Experimental: P38alpha Enzyme Inhibition Assay.
The inhibitory activity of compounds was determined using an Alphascreen® (Perkin Elmer) based kinase activity assay. Kinase reactions consisted of 25 mM HEPES pH 7.5, 10 mM MgCl2, 100 μM Na3VO4, 2 mM DTT, 0.05 mg/ml Tween 20, 100 pM p38alpha (Invitrogen, PV3304), 1% DMSO and 0.3 μg/ml ATF-2 fusion protein (New England Biolabs, 9224). Compounds were incubated under these conditions for 2 hours, at 25° C., prior to the initiation of the kinase activity by the addition of the 250 μM ATP. Reaction volumes were 20 uL. After 1 hr at 25° C. reactions were stopped by the adding 10 uL of 25 mM HEPES pH 7.5 containing 62.5 mM EDTA, 0.05% Triton X-100, 10% BSA and 0.83 ng/uL anti-phospho-ATF2 antibody (Abeam, ab28812). Detection was performed by measuring luminescence following the addition of Alphascreen Donor beads (Perkin Elmer 6765300) and Protein A Alphascreen Acceptor beads (Perkin Elmer 6760137), both at a final concentration of 20 ug/ml. IC50 values were determined from concentration-response curves.

[1] = test system: LPS-stimulated PBMC TNFα release; test: LPS-stimulated PBMC TNFα release assay; type: cell-based; conditions: human PBMCs, LPS 10 ng/ml, 18 h, TNFα by ELISA, at least three separate experiments, read-out: p38α inhibition (IC50 values), inhibition of TNFα release
Experimental: LPS-Stimulated PBMC TNFα Release Assay.
Peripheral Blood Mononuclear Cells (PBMCs) were isolated from healthy human volunteer blood using a standard density gradient centrifugation technique. Citrated blood was placed onto Histopaque™ and centrifuged. The PBMCs were removed from the density gradient interface and washed in phosphate buffered saline (PBS). The PBMCs were suspended in RPMI 1640 medium (without serum), dispensed into a 96-well plate and incubated at 37° C. for 3 h in a humidified incubator. After incubation, the medium was replaced (with medium containing 1% foetal bovine serum), and the plate incubated at 37° C., for 1 h, in the presence of test compound or the appropriate vehicle. LPS (10 ng/ml), or an appropriate vehicle control, was then added to the cells, and the plate returned to the incubator for 18 h. Cell-free supernatants were removed and assayed for TNFα levels using an ELISA kit from R&D Systems.
A dose response curve to each test compound was performed and the effect of compound in each experiment was expressed as a percentage inhibition of the control TNFα release. Dose response curves were plotted and compound potency (IC50) was determined. Compounds were tested in at least three separate experiments.

T1 sequence (Q16539 whole entry, the tested form may be a part): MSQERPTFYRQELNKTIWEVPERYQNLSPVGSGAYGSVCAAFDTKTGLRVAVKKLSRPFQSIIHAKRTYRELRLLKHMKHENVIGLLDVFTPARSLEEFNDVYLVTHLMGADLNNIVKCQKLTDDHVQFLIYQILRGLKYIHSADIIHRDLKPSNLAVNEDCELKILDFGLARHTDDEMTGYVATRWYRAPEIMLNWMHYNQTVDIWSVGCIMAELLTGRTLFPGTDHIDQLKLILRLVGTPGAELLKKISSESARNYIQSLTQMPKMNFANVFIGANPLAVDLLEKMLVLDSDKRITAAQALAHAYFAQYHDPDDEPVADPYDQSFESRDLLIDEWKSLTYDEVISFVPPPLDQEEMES

Compound | IC50 (p38alpha) [nM] | IC50 [1] [nM]
CC(C)(C)c1cc(NC(=O)N[C@H]2CC[C@@H](Oc3ccc4nnc(C5CCCCC5)n4c3)c3ccccc32)n(CCN2CCOCC2)n1 [Example 34, 1-[5-tert-Butyl-2-(2-morpholin-4-yl-ethyl)-2H-pyrazol-3-yl]-3-[(1S,4R)-4-(3-cyclohexyl-[1,2,4]triazolo[4,3-a]pyridin-6-yloxy)-1,2,3,4-tetrahydro-naphthalen-1-yl]-urea partial formate salt] | < 10 | < 10
CC(C)c1nnc2ccc(O[C@@H]3CC[C@H](NC(=O)Nc4cc(C(C)(C)C)nn4CCO)c4ccccc43)cn12 [Example 10, 1-[5-tert-Butyl-2-(2-hydroxy-ethyl)-2H-pyrazol-3-yl]-3-[(1S,4R)-4-(3-isopropyl-[1,2,4]triazolo[4,3-a]pyridin-6-yloxy)-1,2,3,4-tetrahydro-naphthalen-1-yl]-urea] | – | 10 to 100
CC(C)(C)c1cc(NC(=O)N[C@H]2CC[C@@H](Oc3ccc4nnc(-c5ccccc5Cl)n4c3)c3ccccc32)n(CCN2CCOCC2)n1 [Example 32, 1-[5-tert-Butyl-2-(2-morpholin-4-yl-ethyl)-2H-pyrazol-3-yl]-3-{(1S,4R)-4-[3-(2-chloro-phenyl)-[1,2,4]triazolo[4,3-a]pyridin-6-yloxy]-1,2,3,4-tetrahydro-naphthalen-1-yl}-urea formate salt] | < 10 | < 10
CC(C)c1nnc2ccc(O[C@@H]3CC[C@H](NC(=O)Nc4cc(C(C)(C)C)nn4-c4ccc5cnn(CCN6CCOCC6)c5c4)c4ccccc43)cn12 [Example 24, 1-{5-tert-Butyl-2-[1-(2-morpholin-4-yl-ethyl)-1H-indazol-6-yl]-2H-pyrazol-3-yl}-3-[(1S,4R)-4-(3-isopropyl-[1,2,4]triazolo[4,3-a]pyridin-6-yloxy)-1,2,3,4-tetrahydro-naphthalen-1-yl]-urea] | < 10 | –
CC(C)c1nnc2ccc(O[C@@H]3CC[C@H](NC(=O)Nc4cc(C(C)(C)C)nn4-c4ccc(OCCN5CCN(C)CC5)cc4)c4ccccc43)cn12 [Example 13, 1-(5-tert-Butyl-2-{4-[2-(4-methyl-piperazin-1-yl)-ethoxy]-phenyl}-2H-pyrazol-3-yl)-3-[(1S,4R)-4-(3-isopropyl-[1,2,4]triazolo[4,3-a]pyridin-6-yloxy)-1,2,3,4-tetrahydro-naphthalen-1-yl]-urea, formic acid salt] | – | 100 to 1000
CC(C)c1nnc2ccc(O[C@@H]3CC[C@H](NC(=O)Nc4cnn(C(C)(C)C)c4)c4cc(F)ccc43)cn12 [Example 21, 1-(1-tert-Butyl-1H-pyrazol-4-yl)-3-[(1S,4R)-7-fluoro-4-(3-isopropyl-[1,2,4]triazolo[4,3-a]pyridin-6-yloxy)-1,2,3,4-tetrahydro-naphthalen-1-yl]-urea] | < 10 | –
Cc1ccc(-n2cc(NC(=O)N[C@H]3CC[C@H](Oc4ccc5nnc(C(C)C)n5c4)c4ccccc43)cn2)cc1 [Example 6, 1-[(1S,4S)-4-(3-Isopropyl-[1,2,4]triazolo[4,3-a]pyridin-6-yloxy)-1,2,3,4-tetrahydro-naphthalen-1-yl]-3-(1-p-tolyl-1H-pyrazol-4-yl)-urea] | 100 to 500 | –
Cc1ccc(-n2nccc2NC(=O)N[C@H]2CC[C@@H](Oc3ccc4nnc(C(C)C)n4c3)c3ccccc32)cc1 [Example 20, 1-[(1S,4R)-4-(3-Isopropyl-[1,2,4]triazolo[4,3-a]pyridin-6-yloxy)-1,2,3,4-tetrahydro-naphthalen-1-yl]-3-(2-p-tolyl-2H-pyrazol-3-yl)-urea] | 100 to 500 | –

The next lines start with results.

IC50 (p38alpha) [nM] | Compound | IC50 [1] [nM]
< 10 | CC(C)c1nnc2ccc(O[C@H]3CC[C@H](NC(=O)Nc4nnc(C(C)(C)C)o4)c4ccccc43)cn12 [Example 5, 1-(5-tert-Butyl-[1,3,4]oxadiazol-2-yl)-3-[(1S,4S)-4-(3-isopropyl-[1,2,4]triazolo[4,3-a]pyridin-6-yloxy)-1,2,3,4-tetrahydro-naphthalen-1-yl]-urea] | 10 to 100
< 10 | CC(C)c1nnc2ccc(O[C@@H]3CC[C@H](NC(=O)Nc4cc(C(C)(C)C)nn4C4CCNCC4)c4ccccc43)cn12 [Example 16, 1-(5-tert-Butyl-2-piperidin-4-yl-2H-pyrazol-3-yl)-3-[(1S,4R)-4-(3-isopropyl-[1,2,4]triazolo[4,3-a]pyridin-6-yloxy)-1,2,3,4-tetrahydro-naphthalen-1-yl]-urea] | –
< 10 | CC(C)c1nnc2ccc(O[C@@H]3CC[C@H](NC(=O)Nc4cc(C(C)(C)C)nn4C4CCN(C)CC4)c4ccccc43)cn12 [Example 17, 1-[5-tert-Butyl-2-(1-methyl-piperidin-4-yl)-2H-pyrazol-3-yl]-3-[(1S,4R)-4-(3-isopropyl-[1,2,4]triazolo[4,3-a]pyridin-6-yloxy)-1,2,3,4-tetrahydro-naphthalen-1-yl]-urea] | 100 to 1000
< 10 | CC(C)c1nnc2ccc(O[C@@H]3CC[C@H](NC(=O)Nc4cc(C(C)(C)C)nn4-c4cccc(OCCN5CCC(O)CC5)c4)c4ccccc43)cn12 [Example 22, 1-(5-tert-Butyl-2-{3-[2-(4-hydroxy-piperidin-1-yl)-ethoxy]-phenyl}-2H-pyrazol-3-yl)-3-[(1S,4R)-4-(3-isopropyl-[1,2,4]triazolo[4,3-a]pyridin-6-yloxy)-1,2,3,4-tetrahydro-naphthalen-1-yl]-urea formate salt] | 10 to 100
< 10 | CC(C)c1nnc2ccc(O[C@H]3CC[C@H](NC(=O)Nc4cc(C(C)(C)C)nn4-c4ccc(CO)cc4)c4ccccc43)cn12 [Example 15, 1-[5-tert-Butyl-2-(4-hydroxymethyl-phenyl)-2H-pyrazol-3-yl]-3-[(1S,4S)-4-(3-isopropyl-[1,2,4]triazolo[4,3-a]pyridin-6-yloxy)-1,2,3,4-tetrahydro-naphthalen-1-yl]-urea] | < 10
10 to 100 | CC(C)c1nnc2ccc(O[C@H]3CC[C@H](NC(=O)Nc4cc(C(C)(C)C)nn4-c4ccc(C#N)cc4)c4ccccc43)cn12 [Example 14, 1-[5-tert-Butyl-2-(4-cyano-phenyl)-2H-pyrazol-3-yl]-3-[(1S,4S)-4-(3-isopropyl-[1,2,4]triazolo[4,3-a]pyridin-6-yloxy)-1,2,3,4-tetrahydro-naphthalen-1-yl]-urea] | < 10
< 10 | CC(C)c1nnc2ccc(O[C@@H]3CC[C@H](NC(=O)Nc4cc(C(C)(C)C)nn4-c4cccc(OCCO)c4)c4ccccc43)cn12 [Example 4, 1-{5-tert-Butyl-2-[3-(2-hydroxy-ethoxy)-phenyl]-2H-pyrazol-3-yl}-3-[(1S,4R)-4-(3-isopropyl-[1,2,4]triazolo[4,3-a]pyridin-6-yloxy)-1,2,3,4-tetrahydro-naphthalen-1-yl]-urea] | < 10
< 10 | CC(C)c1nnc2ccc(O[C@@H]3CC[C@H](NC(=O)Nc4cc(C(C)(C)C)nn4CCN4CCOCC4)c4ccccc43)cn12 [Example 18, 1-[5-tert-Butyl-2-(2-morpholin-4-yl-ethyl)-2H-pyrazol-3-yl]-3-[(1S,4R)-4-(3-isopropyl[1,2,4]triazolo[4,3-a]pyridin-6-yloxy)-1,2,3,4-tetrahydro-naphthalen-1-yl]-urea] | 10 to 100
< 10 | CC(C)c1nnc2ccc(O[C@@H]3CC[C@H](NC(=O)Nc4cc(C(C)(C)C)nn4-c4ccc(CO)cc4)c4ccccc43)cn12 [Example 11, 1-[5-tert-Butyl-2-(4-hydroxymethyl-phenyl)-2H-pyrazol-3-yl]-3-[(1S,4R)-4-(3-isopropyl-[1,2,4]triazolo[4,3-a]pyridin-6-yloxy)-1,2,3,4-tetrahydro-naphthalen-1-yl]-urea] | < 10
< 10 | CC(C)c1nnc2ccc(O[C@H]3CC[C@H](NC(=O)Nc4cnn(C(C)(C)C)c4)c4ccccc43)cn12 [Example 9, 1-(1-tert-Butyl-1H-pyrazol-4-yl)-3-[(1S,4S)-4-(3-isopropyl-[1,2,4]triazolo[4,3-a]pyridin-6-yloxy)-1,2,3,4-tetrahydro-naphthalen-1-yl]-urea] | < 10
< 10 | CC(C)c1nnc2ccc(O[C@@H]3CC[C@H](NC(=O)Nc4cc(C(C)(C)C)nn4-c4ccc5cn(CCN6CCOCC6)nc5c4)c4ccccc43)cn12 [Example 25, 1-{5-tert-Butyl-2-[2-(2-morpholin-4-yl-ethyl)-2H-indazol-6-yl]-2H-pyrazol-3-yl}-3-[(1S,4R)-4-(3-isopropyl-[1,2,4]triazolo[4,3-a]pyridin-6-yloxy)-1,2,3,4-tetrahydro-naphthalen-1-yl]-urea] | –
